Results published in patent US8163935B2, “Fused heterocyclic compounds” (Takeda Pharmaceutical Company Limited, priority 2005, dated 2012).

SMILES | melting point
CCC(CC)c1ccc(Cl)c2nc(Oc3c(C)cc(Cl)cc3C)n(C)c12 [Example 125, 4-Chloro-2-(4-chloro-2,6-dimethylphenoxy)-7-(1-ethylpropyl)-1-methyl-1H-benzimidazole] | 168 to 169 °C
CCC(CC)c1ccc(Cl)c2nc(Oc3c(OC)cc(C)cc3OC)n(C)c12 [Example 126, 4-Chloro-2-(2,6-dimethoxy-4-methylphenoxy)-7-(1-ethylpropyl)-1-methyl-1H-benzimidazole] | 161 to 162 °C
CCCC(CCC)c1ccc(Cl)c2nc(Oc3ccc(Cl)cc3Cl)n(C)c12 [Example 127, 4-Chloro-2-(2,4-dichlorophenoxy)-1-methyl-7-(1-propylbutyl)-1H-benzimidazole] | 87 to 88 °C
CCCC(CCC)c1ccc(Cl)c2nc(Oc3ccc(Br)cc3Cl)n(C)c12 [Example 128, 2-(4-Bromo-2-chlorophenoxy)-4-chloro-1-methyl-7-(1-propylbutyl)-1H-benzimidazole] | 97 to 99 °C
CCCC(CCC)c1ccc(Cl)c2nc(Oc3c(C)cc(Cl)cc3Cl)n(C)c12 [Example 129, 4-Chloro-2-(2,4-dichloro-6-methylphenoxy)-1-methyl-7-(1-propylbutyl)-1H-benzimidazole] | 148 to 150 °C
CCCC(CCC)c1ccc(Cl)c2nc(Oc3c(C)cc(Cl)cc3C)n(C)c12 [Example 130, 4-Chloro-2-(4-chloro-2,6-dimethylphenoxy)-1-methyl-7-(1-propylbutyl)-1H-benzimidazole] | 160 to 162 °C
CCCC(CCC)c1ccc(Cl)c2nc(Oc3c(C)cc(Br)cc3C)n(C)c12 [Example 131, 2-(4-Bromo-2,6-dimethylphenoxy)-4-chloro-1-methyl-7-(1-propylbutyl)-1H-benzimidazole] | 155 to 157 °C
CCCC(CCC)c1ccc(Cl)c2nc(Oc3c(Cl)cc(Cl)cc3Cl)n(C)c12 [Example 132, 4-Chloro-1-methyl-7-(1-propylbutyl)-2-(2,4,6-trichlorophenoxy)-1H-benzimidazole] | 148 to 150 °C
CCCC(CCC)c1ccc(Cl)c2nc(Oc3c(OC)cc(C)cc3OC)n(C)c12 [Example 133, 4-Chloro-2-(2,6-dimethoxy-4-methylphenoxy)-1-methyl-7-(1-propylbutyl)-1H-benzimidazole] | 203 to 205 °C
CCCC(CCC)c1ccc(Cl)c2nc(Oc3ccc4c5c3CCN5C(=O)CC4)n(C)c12 [Example 134, 9-{[4-Chloro-1-methyl-7-(1-propylbutyl)-1H-benzimidazol-2-yl]oxy}-1,2,5,6-tetrahydro-4H-pyrrolo[3,2,1-ij]quinolin-4-one] | 150 to 152 °C
CCC(CC)c1ccc(Cl)c2nc(Oc3ccc(Cl)cc3Br)n(C)c12 [Example 135, 2-(2-Bromo-4-chlorophenoxy)-4-chloro-7-(1-ethylpropyl)-1-methyl-1H-benzimidazole] | 114 to 115 °C
CCC(CC)c1cc(Br)cc2nc(Oc3c(C)cc(Cl)cc3C)n(C)c12 [Example 136, 5-Bromo-2-(4-chloro-2,6-dimethylphenoxy)-7-(1-ethylpropyl)-1-methyl-1H-benzimidazole] | 214 to 216 °C
CCC(CC)c1ccc(Cl)c2nc(Oc3c(C)cc(Br)cc3C)n(C)c12 [Example 137, 2-(4-Bromo-2,6-dimethylphenoxy)-4-chloro-7-(1-ethylpropyl)-1-methyl-1H-benzimidazole] | 197 to 198 °C
CCC(CC)c1ccc(Cl)c2nc(Oc3c(Cl)cc(Cl)cc3Cl)n(C)c12 [Example 138, 4-Chloro-7-(1-ethylpropyl)-1-methyl-2-(2,4,6-trichlorophenoxy)-1H-benzimidazole] | 155 to 157 °C
CCC(CC)c1ccc(Cl)c2nc(Oc3c(OC)cc(C)nc3C)n(C)c12 [Example 139, 4-Chloro-7-(1-ethylpropyl)-2-[(4-methoxy-2,6-dimethylpyridin-3-yl)oxy]-1-methyl-1H-benzimidazole] | 183 to 184 °C
CCC(CC)c1ccc(Cl)c2nc(Oc3c(Cl)cc(OC(F)(F)F)cc3Cl)n(C)c12 [Example 140, 4-Chloro-2-[2,6-dichloro-4-(trifluoromethoxy)phenoxy]-7-(1-ethylpropyl)-1-methyl-1H-benzimidazole] | 145 to 147 °C
CCC(CC)c1ccc(Cl)c2nc(Oc3c(N(C)C)cc(C)nc3C)n(C)c12 [Example 141, 3-{[4-Chloro-7-(1-ethylpropyl)-1-methyl-1H-benzimidazol-2-yl]oxy}-N,N,2,6-tetramethylpyridin-4-amine] | 175 to 177 °C

SMILES | melting point
CCC(CC)c1ccc(Cl)c2nc(Oc3c(Cl)cc(N(C)C)cc3Cl)n(C)c12 [Example 142, 3,5-Dichloro-4-{[4-chloro-7-(1-ethylpropyl)-1-methyl-1H-benzimidazol-2-yl]oxy}-N,N-dimethylaniline] | 200 to 202 °C
CCC(CC)c1ccc(Cl)c2nc(Oc3c(Cl)cc(Cl)cc3C(=O)N(C)C)n(C)c12 [Example 143, 3,5-Dichloro-2-{[4-chloro-7-(1-ethylpropyl)-1-methyl-1H-benzimidazol-2-yl]oxy}-N,N-dimethylbenzamide] | 141 to 143 °C
CCC(CC)c1ccc(Cl)c2nc(Oc3c(C)cc(Cl)cc3OC)n(C)c12 [Example 144, 4-Chloro-2-(4-chloro-2-methoxy-6-methylphenoxy)-7-(1-ethyl-1-propyl)-1-methyl-1H-benzimidazole] | 165 to 167 °C
CCC(CC)c1ccc(OC)c2nc(Oc3ccc(Cl)cc3Br)n(C)c12 [Example 146, 2-(2-Bromo-4-chlorophenoxy)-7-(1-ethylpropyl)-4-methoxy-1-methyl-1H-benzimidazole] | 106 to 107 °C
CCC(CC)c1ccc(O)c2nc(Oc3ccc(Cl)cc3Br)n(C)c12 [Example 147, 2-(2-Bromo-4-chlorophenoxy)-7-(1-ethylpropyl)-1-methyl-1H-benzimidazol-4-ol] | 175 to 177 °C
CCC(CC)c1ccc(-c2ccco2)c2nc(Oc3ccc(Cl)cc3Br)n(C)c12 [Example 149, 2-(2-Bromo-4-chlorophenoxy)-7-(1-ethylpropyl)-4-(2-furyl)-1-methyl-1H-benzimidazole] | 159 to 162 °C
CCC(CC)c1ccc(C#N)c2nc(Oc3ccc(Cl)cc3Br)n(C)c12 [Example 150, 2-(2-Bromo-4-chlorophenoxy)-7-(1-ethylpropyl)-1-methyl-1H-benzimidazole-4-carbonitrile] | 136 to 137 °C
CCC(CC)c1ccc(C#N)c2nc(Oc3c(C)cc(Cl)cc3Cl)n(C)c12 [Example 151, 2-(2,4-Dichloro-6-methylphenoxy)-7-(1-ethylpropyl)-1-methyl-1H-benzimidazole-4-carbonitrile] | 192 °C
CCC(CC)c1ccc(C#N)c2nc(Nc3c(C)cc(Cl)cc3OC)n(C)c12 [Example 152, 2-[(4-Chloro-2-methoxy-6-methylphenyl)amino]-7-(1-ethylpropyl)-1-methyl-1H-benzimidazole-4-carbonitrile] | 223 to 225 °C
CCC(CC)c1ccc(C(=O)OC)c2nc(Oc3c(C)cc(Cl)cc3Cl)n(C)c12 [Example 153, Methyl 2-(2,4-dichloro-6-methylphenoxy)-7-(1-ethylpropyl)-1-methyl-1H-benzimidazole-4-carboxylate] | 177 to 178 °C
CCC(CC)c1ccc(CO)c2nc(Oc3c(C)cc(Cl)cc3Cl)n(C)c12 [Example 154, [2-(2,4-Dichloro-6-methylphenoxy)-7-(1-ethylpropyl)-1-methyl-1H-benzimidazol-4-yl]methanol] | 141 to 143 °C
CCC(CC)c1ccc(CN2CCCC2)c2nc(Oc3c(C)cc(Cl)cc3Cl)n(C)c12 [Example 156, 2-(2,4-Dichloro-6-methylphenoxy)-7-(1-ethylpropyl)-1-methyl-4-(pyrrolidin-1-ylmethyl)-1H-benzimidazole] | 107 to 108 °C
CCC(CC)c1ccc(C(F)(F)F)c2nc(Nc3c(C)cc(Cl)cc3OC)n(C)c12 [Example 158, N-(4-Chloro-2-methoxy-6-methylphenyl)-7-(1-ethylpropyl)-1-methyl-4-(trifluoromethyl)-1H-benzimidazol-2-amine] | 187 to 188 °C
CCC(CC)c1ccc(C(F)(F)F)c2nc(Nc3ccc(Cl)cc3Br)n(C)c12 [Example 159, N-(2-Bromo-4-chlorophenyl)-7-(1-ethylpropyl)-1-methyl-4-(trifluoromethyl)-1H-benzimidazol-2-amine] | 151 to 152 °C
CCC(CC)c1ccc(C(F)(F)F)c2nc(Oc3c(C)cc(Cl)cc3Cl)n(C)c12 [Example 160, 2-(2,4-Dichloro-6-methylphenoxy)-7-(1-ethylpropyl)-1-methyl-4-(trifluoromethyl)-1H-benzimidazole] | 149 to 151 °C
CCC(CC)c1ccc(C(F)(F)F)c2nc(Oc3ccc(Cl)cc3Br)n(C)c12 [Example 161, 2-(2-Bromo-4-chlorophenoxy)-7-(1-ethylpropyl)-1-methyl-4-(trifluoromethyl)-1H-benzimidazole] | 119 to 120 °C
CCc1cc(CC)n(-c2cccc3nc(Oc4c(C)cc(Cl)cc4Cl)n(C)c23)n1 [Example 162, 2-(2,4-Dichloro-6-methylphenoxy)-7-(3,5-diethyl-1H-pyrazol-1-yl)-1-methyl-1H-benzimidazole] | 115 to 119 °C
